What was measured:
[1] = system: KB-vin cells; assay: NQO1-dependent cytotoxicity; conditions: SRB, 72 h
[2] = system: HeLaS3 cells; assay: ROS generation, HeLaS3; type: cell-based, human; conditions: HeLaS3, 24 h treatment
[3] = system: normal endometrial epithelial cells (EECs); assay: MTT proliferation assay, normal endometrial epithelial cells; type: cell-based; conditions: increasing doses, 72 h
[4] = system: HeLaS3 cells; assay: Western blot of apoptotic proteins; type: cell-based, human; conditions: HeLaS3, 72 h
[5] = biological target: T1, NQO1 (Homo sapiens, UniProt P15559); assay: NQO1 activity assay kit in treated HeLaS3 cells; conditions: HeLaS3, 24 h, serial concentrations
T1 sequence (P15559 whole entry): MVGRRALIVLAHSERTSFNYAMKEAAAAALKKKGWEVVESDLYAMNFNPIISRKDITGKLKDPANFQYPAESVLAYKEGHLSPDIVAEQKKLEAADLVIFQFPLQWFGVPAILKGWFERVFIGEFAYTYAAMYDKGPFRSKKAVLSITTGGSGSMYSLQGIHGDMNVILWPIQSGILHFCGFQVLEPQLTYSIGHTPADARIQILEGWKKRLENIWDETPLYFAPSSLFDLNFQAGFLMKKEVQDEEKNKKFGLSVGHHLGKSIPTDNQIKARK

[6] = biological target: T1, NQO1; assay: NQO1 inhibitory kinetic assay; type: biochemical
[7] = system: HeLaS3 cells; assay: NQO1-dependent cytotoxicity; conditions: HeLaS3, SRB, 72 h
[8] = system: KB-vin cells; assay: ROS generation, KB-vin; type: cell-based, human; conditions: 24 h treatment
[9] = system: KB-vin cells; assay: Mitochondrial membrane potential assay, KB-vin; type: cell-based, human; conditions: 24 h treatment
[10] = system: HeLaS3 cells; assay: Mitochondrial membrane potential assay, HeLaS3; type: cell-based, human; conditions: HeLaS3, 24 h treatment
[11] = system: HeLaS3 cells; assay: MTT proliferation assay, HeLaS3; type: cell-based, human; conditions: increasing doses, 72 h
[12] = biological target: T1, NQO1; assay: NQO1 activity assay kit in treated KB-vin cells; conditions: 24 h, serial concentrations
[13] = system: HeLaS3 cells; assay: SRB antiproliferation assay, HeLaS3; conditions: read-out: IC50 HeLaS3, 72 h, mean ± SD of three experiments

| Compound | ROS production [2] | NQO1 activity after treatment [5] | ROS production [8] | mitochondrial membrane potential [9] | mitochondrial membrane potential [10] | NQO1 activity after treatment [12] | IC50 [13] [µM] | further results |
| --- | --- | --- | --- | --- | --- | --- | --- | --- |
| CN1CCN(c2ccc(NC3=CC(=O)c4cccnc4C3=O)cc2)CC1 [Compound 7d, 7-((4-(4-Methylpiperazin-1-yl)phenyl)amino)quinoline-5,8-dione] | increased dose-dependently | inhibited dose-dependently | increased dose-dependently | significantly decreased in a dose-dependent manner | significantly decreased in a dose-dependent manner | inhibited dose-dependently |  | cell viability of compound-treated cells on addition of DIC and NAc [1]: significantly increased; effect on survival of non-tumor EECs [3]: no significant effect; cleavage of caspase-3 [4]: induced more cleavage of caspase-3 than the control group; levels of anti-apoptotic Bcl-2 expression ([4]; dose-dependent): reduced; relative levels of pro-apoptotic Bax expression ([4]; dose-dependent): dramatically increased; mode of NQO1 inhibition ([6]; Lineweaver-Burk plots): competitive inhibitors; maximum rate (Vmax) ([6]; remained the same as inhibitor concentration increased): 11.03 ± 1.5 nmol/mg protein/20s; cell viability of compound-treated cells on addition of DIC and NAc [7]: significantly increased; effect on HeLaS3 cells, same treatment regimen [11]: induced major HeLaS3 cell death |
| 7-((4-([1,4’ -Bipiperidin]-1’ -yl)phenyl)amino)quinoline-5,8-dione [Compound 7f] |  |  |  |  |  |  | 5.07 ± 0.1 |  |
| CN1CCN(c2ccc(NC3=CC(=O)c4ncccc4C3=O)cc2)CC1 [Compound 6d, 6-((4-(4-Methylpiperazin-1-yl)phenyl)amino)quinoline-5,8-dione] | increased dose-dependently |  | increased dose-dependently | significantly decreased in a dose-dependent manner | significantly decreased in a dose-dependent manner |  |  |  |
| COC(=O)/C=C/c1cccc(CNC2=CC(=O)c3ncccc3C2=O)c1 [Compound 6h, (E)-Methyl 3-(3-(((5,8-dioxo-5,8-dihydroquinolin-6-yl)amino)methyl)phenyl)acrylate] | increased dose-dependently | inhibited dose-dependently | increased dose-dependently | significantly decreased in a dose-dependent manner | significantly decreased in a dose-dependent manner | inhibited dose-dependently |  |  |
| 6-((4-([1,4’ -Bipiperidin]-1’ -yl)phenyl)amino)quinoline-5,8-dione [Compound 6f] |  |  |  |  |  |  | 5.16 |  |
| O=C1C=C(NCCc2c[nH]c3ccccc23)C(=O)c2ncccc21 [Compound 7a, 7-((2-(1H-Indol-3-yl)ethyl)amino)quinoline-5,8-dione] | increased dose-dependently | inhibited dose-dependently | increased dose-dependently | significantly decreased in a dose-dependent manner | significantly decreased in a dose-dependent manner | inhibited dose-dependently |  |  |

Reference: PMC6421848 (European journal of medicinal chemistry, 2018)
